The source of these data is PubChem BioAssay AID720587 (Broad Institute, 2013).

Several values for one entry are separate records, joined by “and”; a condition that tells them apart may be missing. Equal entries are not always repeated.

The test has as its system A673 Ewing sarcoma viability, CellTiter-Glo ATP luminescence, 72 h. Briefly: EWS/Fli1-dependent A673 cell killing, confirmation, CellTiter-Glo luminescence, cherry-pick retest (AID 720587). On the technique in general: Cellular ATP, detected with luciferase, serves as a proxy for viable cell number.
For the compound `Cc1c(N=Cc2cc(Br)cc(Br)c2O)cccc1C(=O)O`, the AC35 is 20 µM. For `C(=Cc1c[nH]c2ccccc12)c1ccc2ccccc2n1` the value was 1.16 µM; for `Cc1ccc(OCCNC(=O)c2cccc(S(=O)(=O)NCc3ccccc3)c2)cc1`, 4.65 µM. For `COc1ccc(Cn2cc3c(-c4ccc(F)cc4)nnc-3c3cc(OC)c(OC)cc32)cc1` the value was 4.86 µM. For `CN1C2CCC1/C(=C/c1ccccn1)C(=O)/C2=C\c1ccccn1` the value was 0.362 µM. Regarding `CCn1c(/C=N/NC(=O)c2ccc(OC)cc2)nc2ccccc21`, the AC35 was 5.62 µM. For `CC1=NN(c2ccccc2)C(=O)/C1=C\C=C\c1ccccc1` the value was 3.99 µM. For `Cc1nn(-c2ccc(F)cc2)c2nc(N)c(C#N)c(-c3ccc(O)c(O)c3)c12` the value was 8.63 µM; for `Cc1noc(C)c1C(=O)Nc1sccc1C(N)=O`, 14.3 µM; for `C[C@@H]1CN([C@@H](C)CO)C(=O)c2cccc(NS(=O)(=O)c3ccc(Cl)cc3)c2O[C@@H]1CN(C)Cc1ccc(C(=O)Nc2ccccc2N)cc1`, 8.47 µM. For `CCc1nc(N)nc(N)c1-c1ccc(Cl)cc1` the value was 8.71 µM. With `CO[C@H]1CN(C)C(=O)c2ccc(NC(=O)c3ccc(-c4ccccc4)cc3)cc2OC[C@H](C)NC[C@H]1C`, the AC35 is 10.5 µM. For `COCC(=O)Nc1ccc2c(c1)[C@@H]1C[C@@H](CC(=O)NCc3ccc(-c4ccccc4)cc3)O[C@@H](CO)[C@@H]1O2` the value was 12.7 µM; for `Cc1ccc(C(=O)O/N=C(\N)c2ccccn2)cc1`, 17.7 µM. Regarding `Cc1nc2ncccn2c1-c1csc(Nc2ccc(O)cc2)n1`, the AC35 is 1.35 µM. For `CN(Cc1cnc2nc(N)nc(N)c2n1)c1ccc(C(=O)N[C@@H](CCC(=O)O)C(=O)O)cc1`, the AC35 was 0.0191 µM and 0.018 µM. For `C[C@H]1CN([C@@H](C)CO)S(=O)(=O)c2ccc(C#Cc3ccncc3)cc2O[C@@H]1CN(C)C(=O)Nc1ccc2c(c1)OCO2` the value was 0.64 µM; for `Oc1[nH]c2ccc(Br)cc2c1N=NC(=S)N1CCOCC1`, 0.236 µM; for `N#C[C@H]1N[C@H](CO)[C@H]1c1ccc(C#Cc2ccc(F)cc2)cc1`, 20.2 µM. Consider `C[C@H]1CN([C@@H](C)CO)S(=O)(=O)c2ccc(C#CC(C)(C)O)cc2O[C@@H]1CN(C)Cc1ccc(-c2ccccc2)cc1`, for which the AC35 is 0.656 µM.

Consider `COc1ccccc1N(/N=C1\Sc2ccccc2C1=O)C(C)=O`, for which the AC35 was 14.8 µM. For `O=c1c2ccccc2nc(/C=C/c2cc(Br)ccc2O)n1CCCO` the value was 9.12 µM. For `CC(C)=CCC/C(C)=C/CN1C(=O)N(c2ccc(F)cc2)[C@H]2C[C@@H](c3ccccc3)[C@@H](C)[C@@H](C(=O)N3CCOCC3)C[C@H]21` the value was 5.03 µM; for `COc1cccc(Sc2ccccc2/C=N/NC(N)=O)c1`, 2.23 µM.

Consider `C[C@H](CO)N1C[C@H](C)[C@H](CN(C)Cc2ccc(Oc3ccccc3)cc2)Oc2ccc(NC(=O)CCCCCC(=O)Nc3ccccc3N)cc2CC1=O`, for which the AC35 is 4.84 µM. For `CC(C)(C)[S@](=O)N1Cc2cc(C(=O)NCC(F)(F)F)nc(-c3cccc(-c4cccc(F)c4)c3)c2[C@@H]1CCO` the value was 14.3 µM; for `O=c1ccc2[n+]([O-])c3ccc(O)cc3oc-2c1`, 8.92 µM. Turning to `CC[C@@H]1C[C@H]2CC[C@H](O2)[C@H](C)C(=O)O[C@@H](C)C[C@@H]2CC[C@@H](O2)[C@@H](C)C(=O)O[C@H](C)C[C@H]2CC[C@H](O2)[C@H](C)C(=O)O[C@@H](C)C[C@@H]2CC[C@@H](O2)[C@@H](C)C(=O)O1`, the AC35 is 0.243 µM. With `COC(=O)C[C@@H]1CC[C@@H]2[C@H](COc3ccc(NC(=O)c4ccc(F)cc4)cc3C(=O)N2C)O1`, the AC35 is 23 µM.

As for `CN(CCO)c1ccc(/C=N/Nc2nncc3ccccc23)cc1`, the AC35 is 19.9 µM. As to `C[C@H](CO)N1C[C@H](C)[C@@H](CN(C)Cc2ccc(Oc3ccccc3)cc2)Oc2ccc(NS(=O)(=O)c3ccc(Cl)cc3)cc2CC1=O`, the AC35 was 16.2 µM. For `COC(=O)C[C@@H]1CC[C@@H]2[C@@H](COc3ccc(NC(=O)Nc4ccc(C#N)cc4)cc3C(=O)N2C)O1` the value was 9.7 µM. Next, `CCOc1cc2[nH]c(=S)n(Cc3ccc(C(=O)NCCN(CC)CC)cc3)c(=O)c2cc1OCC`: 12 µM; `COc1ccc([Si](C)(C)[C@H]2[C@H](CCO)O[C@@]3(C(=O)N(c4ccccc4)c4ccccc43)[C@@H]2C)cc1`: 7.61 µM; `O=c1[nH]c(=O)n(C2C[C@H](O)[C@@H](CO)O2)cc1C(F)(F)F` (stereo partly specified): 3.17 µM. As for `COc1ccc(CN(C)c2ncnc3sccc23)c(OC)c1OC`, the AC35 was 15.3 µM. On to `CN(C)CC1CCC/C(=C\c2ccc(OC(=O)c3ccc(Cl)cc3)cc2)C1=O` (stereo unspecified), for which the AC35 was 0.771 µM. For `C=C1C(=O)OC2C1CCC(C)C1C=CC(=O)C12C` (stereo unspecified) the value was 7.41 µM; for `CC1(C)Oc2cc3oc(-c4cc(O)cc(O)c4)cc3cc2CC1O` (stereo unspecified), 21.7 µM; for `C[C@@H]1CCCCO[C@H](CN(C)Cc2ccc(C(=O)Nc3ccccc3N)cc2)[C@@H](C)CN([C@@H](C)CO)C(=O)c2cc(NS(=O)(=O)c3ccc(Cl)cc3)ccc2O1`, 8.42 µM. Next, `CCCCCCN(C(=O)CCCCCN1C(=O)NC(c2ccc(Cl)cc2)C(C(=O)OCc2ccccc2)=C1C)C(C(=O)NCCCC)c1ccc(OCC(=O)OC)c(C(=O)OC)c1` (stereo unspecified): 10.8 µM. For `Nc1sc(-c2ccccc2)cc1-c1n[nH]c(=S)n1C1CCCCC1` the value was 6.83 µM. Consider `CCNC(=O)c1cc2c(c(-c3cccc(-c4cccc(OC)c4)c3)n1)[C@H](CCO)N([S@@](=O)C(C)(C)C)C2`, for which the AC35 is 5.13 µM.

In the case of `COC(=O)C[C@@H]1CC[C@@H]2[C@H](COc3ccc(NC(=O)Nc4cccc(C#N)c4)cc3C(=O)N2C)O1`, the AC35 was 12 µM. For `CCc1nc(N)nc(N)c1-c1ccc(Cl)c(N=[N+]=[N-])c1` the value was 7.14 µM. Next, `COC(=O)C[C@@H]1CC[C@@H]2[C@H](COc3ccc(NC(=O)c4ccc(C(F)(F)F)cc4)cc3C(=O)N2C)O1`: 10.5 µM; `O=C(O)c1ccc(N/N=C/c2ccc3c(c2)OCO3)cc1`: 16.5 µM; `COc1ccc(/C=C2\SC(=S)N(CCCC(=O)NNC(=O)c3ccccc3O)C2=O)cc1`: 16.8 µM. For the compound `C=C(C(=O)c1ccccc1)C(C(=C)C(=O)c1ccccc1)c1ccc(OC)cc1`, the AC35 was 4.04 µM. Next, `COc1ccc(S(=O)(=O)N2CC[C@@H]3[C@@H](CO)Nc4ccc(-c5ccc(C#N)cc5)cc4[C@@H]32)cc1`: 8.87 µM; `C[C@@H]1CN([C@@H](C)CO)C(=O)c2cc(NC(=O)Nc3ccccc3)ccc2O[C@@H]1CN(C)Cc1ccc(C(=O)Nc2ccccc2N)cc1`: 7.56 µM; `COc1ccc(NC(=O)N2CCCCN3[C@H](CO)[C@H](c4ccc(C#CCC(C)C)cc4)[C@H]3C2)cc1`: 6.47 µM.

For the compound `COc1cc2oc3cc(C#Cc4ccc(N)cc4)ccc3c(=O)c2cc1OC`, the AC35 was 17.4 µM. Consider `COC(=O)[C@H]1[C@H](CO)[C@H]2Cn3c(ccc(-c4ccccc4F)c3=O)[C@@H]1N2CC1CCCC1`, for which the AC35 was 17.4 µM.

For `OCC1OC(n2cnc3c(NCc4ccco4)ncnc32)C(O)C1O` (stereo unspecified), the AC35 was 4.04 µM. Next, `C[C@@H]1CN([C@H](C)CO)S(=O)(=O)c2ccc(C#Cc3ccncc3)cc2O[C@@H]1CN(C)C(=O)Nc1ccc2c(c1)OCO2`: 19.4 µM.
